Values quoted from earlier work, collected in patent US12379360B2, “Detection system for an electronic nose allowing a physicochemical classification of odours and electronic nose comprising such a system” (COMMISSARIAT À L'ÉNERGIE ATOMIQUE ET AUX ÉNERGIES …, priority 2019, dated 2025).

What was measured:
[1] = pure compound
[2] = n-octanol/water partition coefficient
[3] = scale of R. M. Sweet and D. Eisenberg, reference [4]

| n (refractive index) [1] | logP [2] | hydrophobicity index [3] | Structure (SMILES) |
| --- | --- | --- | --- |
| 1.457 | −0.9 | – | NCCCCN [DAB, 1,4-diaminobutane] |
| 1.458 | −0.6 | – | NCCCCCN [DAP, 1,5-diaminopentane] |
| 1.435 | 0.9 | – | CCCSCCC [DPS, dipropylsulphide] |
| 1.401 | 1.4 | – | CCN(CC)CC [TEA, triethylamine] |
| – | – | −0.74 | NC(=O)C[C@H](N)C(=O)O [asparagine] |
| 1.411 | 1.5 | – | CCCCCN [n-PA, n-pentylamine] |
| – | – | 0.12 | O=C(O)[C@@H]1CCCN1 [proline] |

| Structure (SMILES) | n (refractive index) [1] | logP [2] | hydrophobicity index [3] |
| --- | --- | --- | --- |
| CSC [DMS, dimethylsulphide] | 1.4487 | 2.7 | – |
| CN(C)C [TMA, trimethylamine] | 1.3631 | 0.3 | – |
